Assay results reported in article PMC2685281 (Journal of organometallic chemistry, 2009).
Where two headings read alike, the source gives them in different places.

Tests used:
reduced thiol groups = settings: read-out: dissociation constants (Kd) for reduced thiol groups; cited from earlier work
[1] = biological target: pyruvate dehydrogenase (PDH) complex; format: biochemical, porcine
PDH complex = settings: read-out: IC50, PDH inhibition; cited from earlier work
[2] = biological target: α-ketoglutarate dehydrogenase (KGDH) complex (Sus scrofa, UniProt Q9N0F1); format: biochemical, porcine
[3] = biological target: T1, lipoic acid groups of the α-ketoglutarate dehydrogenase complex (Sus scrofa, UniProt Q9N0F1); format: binding, porcine
T1 sequence (Q9N0F1 69-455): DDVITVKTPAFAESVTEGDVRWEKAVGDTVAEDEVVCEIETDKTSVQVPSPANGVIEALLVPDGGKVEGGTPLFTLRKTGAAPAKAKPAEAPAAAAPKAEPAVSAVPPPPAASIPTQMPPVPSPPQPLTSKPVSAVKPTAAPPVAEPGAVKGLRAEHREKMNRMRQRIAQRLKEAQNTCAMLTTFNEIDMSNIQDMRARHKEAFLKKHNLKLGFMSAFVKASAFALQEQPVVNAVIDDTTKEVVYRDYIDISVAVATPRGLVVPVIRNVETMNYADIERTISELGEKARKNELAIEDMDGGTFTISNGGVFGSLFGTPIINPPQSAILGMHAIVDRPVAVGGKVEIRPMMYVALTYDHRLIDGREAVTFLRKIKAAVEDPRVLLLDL

[4] = biological target: T2, lipoic acid groups of the pyruvate dehydrogenase complex (Sus scrofa, UniProt A0A4X1TBD2); format: binding, porcine
T2 sequence (A0A4X1TBD2 1-647): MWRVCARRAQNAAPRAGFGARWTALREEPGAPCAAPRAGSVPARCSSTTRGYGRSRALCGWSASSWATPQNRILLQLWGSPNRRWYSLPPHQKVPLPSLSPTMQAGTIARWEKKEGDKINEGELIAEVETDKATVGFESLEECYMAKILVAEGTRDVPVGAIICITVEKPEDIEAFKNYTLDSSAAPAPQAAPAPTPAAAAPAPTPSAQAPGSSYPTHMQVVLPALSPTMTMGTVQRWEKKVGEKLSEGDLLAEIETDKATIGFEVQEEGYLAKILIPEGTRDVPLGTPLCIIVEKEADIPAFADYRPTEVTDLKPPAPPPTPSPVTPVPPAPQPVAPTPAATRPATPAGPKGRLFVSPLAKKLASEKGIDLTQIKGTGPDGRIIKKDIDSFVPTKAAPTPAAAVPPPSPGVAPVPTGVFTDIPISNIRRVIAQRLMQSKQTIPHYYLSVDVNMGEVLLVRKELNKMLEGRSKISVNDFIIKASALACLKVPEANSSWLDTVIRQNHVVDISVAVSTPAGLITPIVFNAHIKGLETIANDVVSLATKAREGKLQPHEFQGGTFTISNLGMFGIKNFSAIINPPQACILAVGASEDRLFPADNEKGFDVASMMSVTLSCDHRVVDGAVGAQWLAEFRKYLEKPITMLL

| Substance | Kd (reduced thiol groups) [µM] | 50% enzyme inhibition (IC50), PDH, half hour incubation [1] [ppb] | 50% enzyme inhibition (IC50), PDH, one hour incubation [1] [ppb] | IC50 ([1]; read-out: 50% enzyme inhibition (IC50), PDH, half hour incubation) [µM] | IC50 ([1]; read-out: 50% enzyme inhibition (IC50), PDH, one hour incubation) [µM] | IC50 (PDH complex) [µM] | 50% enzyme inhibition (IC50), KGDH, half hour incubation [2] [ppb] | 50% enzyme inhibition (IC50), KGDH, one hour incubation [2] [ppb] | IC50 ([2]; read-out: 50% enzyme inhibition (IC50), KGDH, half hour incubation) [µM] | IC50 ([2]; read-out: 50% enzyme inhibition (IC50), KGDH, one hour incubation) [µM] | Loss of recognition of lipoic acid groups by anti-lipoic acid antibody, KGDH [3] | Loss of recognition of lipoic acid groups by anti-lipoic acid antibody, PDH [4] |
| --- | --- | --- | --- | --- | --- | --- | --- | --- | --- | --- | --- | --- |
| Sodium arsenite [As ^3+] | 5 to 124 | 704 | 267 | 9.39 | 3.56 | 116 | 733 | 488 | 9.78 | 6.51 | – | – |
| Dimethylarsonous iodide [DMA ^3+] | – | – | – | – | – | – | – | – | – | – | strong interference | strong interference |
